Data taken from PMC5700124 (Scientific Reports, 2017).
“And” between values parts separate entries of the source, which are not always exact repeats. Equal values may be shown once. Read-outs that look alike come from different tables or passages of the source.

Columns and labels:
α2 adrenoceptors [1] = experiment: Eadie-Hofstee Plot of PET binding potentials (receptor density Bmax and KD in vivo); design: species or system rat
Text: The values of BPND enabled us to determine the α2 adrenoceptor density in vivo. As presented in Fig. 4A, we estimated values of receptor density, Bmax, and receptor affinity (1/KD) by means of Eadie-Hofstee plots. We calculated the bound quantity according to eq. 2, based on the information of the BPND and specific activity. We found the greatest receptor densities in thalamus, caudate putamen, and cortical areas, with the lowest densities in cerebellum and olfactory bulb as presented in Fig. 4B. The regional receptor densities are listed in detail in Table 2 and specific activity in Table 3.
We derived the present method from well-known principles of kinetics. We identified the following six steps to the determination of binding parameters of radioligands that achieve receptor occupancy. […] The variable B is the bound quantity of the ligand, and BPND is the binding potential of the radioligand at the specific degree of occupancy. To solve the equation of the Eadie-Hofstee plot for the two parameters, it is necessary to know the bound quantities of the ligand and the binding potentials in at least two conditions of different occupancy. The bound quantity is related to the binding potential by the relationship,2 B=M(BPND/1+BPND), where M is the total mass of the ligand per unit volume of brain tissue, calculated from the known specific activity of the radioligand.
The sixth and final step was the graphical solution to the Eadie-Hofstee Plot of eq. (1) (Eadie 1952, Hofstee 1952), where B is the bound quantity and BPND is the binding potential of ligands. We calculated the bound quantity from the relationship described by eq. 2.

α2 adrenoceptor [2] = biological target: α2 adrenoceptor; design: method as in Rout et al.[32]; conditions: cortex, pH 7.0, 25.0 °C, blocking of NS noradrenaline 100 μM, ref Rout et al.[32], cited from earlier work
α2 adrenoceptor [3] = conditions: cerebral cortex, pH 7.4, 25.0 °C, mg^2+ 0, blocking of NS phentolamine 10 μM, cited from earlier work
α2 adrenoceptors [4] = conditions: cited from earlier work
α2 adrenoceptor [5] = conditions: parieto-occipital cortex, pH 7.5, 25.0 °C, mg^2+ 1 mM, blocking of NS adrenaline 10 μM, cited from earlier work
α2 adrenoceptors [6] = test system: α2 adrenoceptors; design: method as in Jakobsen and colleagues[14]; conditions: porcine brain; low dose 0.15 mg/kg vs 0.7 mg/kg; ref Jakobsen and colleagues[14]; cited from earlier work
[7] = design: method as in Jakobsen et al.[14]; conditions: pigs; challenge, compared with yohimbine; ref Jakobsen et al.[14]; cited from earlier work
[8] = test system: [^11C]mirtazepin binding in porcine brain; design: method as in Smith et al.[34]; conditions: ref Smith et al.[34], cited from earlier work
α2 adrenoceptor subtypes = test system: α2 adrenoceptor subtypes; design: method as in PMID 7908054; conditions: cited from earlier work
plasma proteins = conditions: in the circulation; cited from earlier work
α2 adrenoceptors [9] = experiment: PET of [^11C]yohimbine binding in rat brain at baseline and at challenge with unlabeled yohimbine; conditions: for Volumes of Distribution, VT, BASE: baseline; for Volumes of Distribution, VT, BASE / Volumes of Distribution, VT, COLD: individual rats 1-5; for Volumes of Distribution, VT, COLD: challenge with unlabeled yohimbine 0.3 mg/kg i.v.

COC(=O)[C@@H]1[C@H]2C[C@H]3c4[nH]c5ccccc5c4CCN3C[C@@H]2CC[C@@H]1O [[^3H]yohimbine]
Kd (α2 adrenoceptor [2]; mg^2+ 0 mM): […] | Kd (α2 adrenoceptor [2]; mg^2+ 10 mM): […] | Kd (α2 adrenoceptor [3]; ref Brown et al.[44]): 5.2 nM | Kd (α2 adrenoceptor [3]; ref Brown et al.[45]): 5.3 nM

CC(N)Cc1ccccc1 (stereo not shown) [amphetamine]
change of VND(b) and fP of [^11C]yohimbine (α2 adrenoceptors [4]; amphetamine 2 mg/kg challenge): did not change

COC1(C2=NCCN2)COc2ccccc2O1 (stereo not shown) [[^3H]RX821002]
Kd (α2 adrenoceptor [5]; ref Ribas et al.[7]): 0.57 nM | Kd (α2 adrenoceptor [5]; ref Ribas et al.[68]): 0.5 nM

COC1(C2=NCCN2)COc2ccccc2O1 (stereo not shown) [RX821002]
decline of VT of [^11C]yohimbine (α2 adrenoceptors [6]): greater decline of the value of VT than the higher dose of 0.7 mg/kg | effect on CBF [7]: opposite effect | reduction of [^11C]mirtazepin binding ([8]; 0.1 mg/kg): 35% | reduction of [^11C]mirtazepin binding ([8]; 1 mg/kg): failed to inhibit the binding further | affinity to α2 adrenoceptor subtypes (α2 adrenoceptor subtypes): higher affinity to α2A and α2C than to α2B

[11CH3]OC(=O)[C@@H]1[C@H]2C[C@H]3c4[nH]c5ccccc5c4CCN3C[C@@H]2CC[C@@H]1O [[^11C]yohimbine]
fraction bound to plasma proteins (plasma proteins): 82% | radioactive metabolites in plasma (α2 adrenoceptors [4]; data from two rats): no radioactive metabolites | Volumes of Distribution, VT, BASE (α2 adrenoceptors [9]; CEREB cerebellum): […] | Volumes of Distribution, VT, COLD (α2 adrenoceptors [9]; CEREB cerebellum): […] | Volumes of Distribution, VT, BASE (α2 adrenoceptors [9]; CP caudate putamen): […] | Volumes of Distribution, VT, COLD (α2 adrenoceptors [9]; CP caudate putamen): […] | Volumes of Distribution, VT, BASE (α2 adrenoceptors [9]; HIPP hippocampus): […] | Volumes of Distribution, VT, COLD (α2 adrenoceptors [9]; HIPP hippocampus): […] | Volumes of Distribution, VT, BASE (α2 adrenoceptors [9]; HYP hypothalamus): […] | Volumes of Distribution, VT, COLD (α2 adrenoceptors [9]; HYP hypothalamus): […] | Volumes of Distribution, VT, BASE (α2 adrenoceptors [9]; MC motor cortex): […] | Volumes of Distribution, VT, COLD (α2 adrenoceptors [9]; MC motor cortex): […] | Volumes of Distribution, VT, BASE (α2 adrenoceptors [9]; OLF olfactory bulb): […] | Volumes of Distribution, VT, COLD (α2 adrenoceptors [9]; OLF olfactory bulb): […] | Volumes of Distribution, VT, BASE (α2 adrenoceptors [9]; PFC prefrontal cortex): […] | Volumes of Distribution, VT, COLD (α2 adrenoceptors [9]; PFC prefrontal cortex): […] | Volumes of Distribution, VT, BASE (α2 adrenoceptors [9]; SSC somatosensory cortex): […] | Volumes of Distribution, VT, COLD (α2 adrenoceptors [9]; SSC somatosensory cortex): […] | Volumes of Distribution, VT, BASE (α2 adrenoceptors [9]; THAL thalamus): […] | Volumes of Distribution, VT, COLD (α2 adrenoceptors [9]; THAL thalamus): […] | time of peak uptake post-injection (α2 adrenoceptors [9]; cerebellum): […] | rate of escape (α2 adrenoceptors [9]; corresponding to K1 for a vascular volume of 0.02 ml/cm^3): […] | time of peak accumulation post-injection (α2 adrenoceptors [9]; other brain regions): […]
